Source: paper PMC2894858 (PLoS ONE, 2010)
Like-named read-outs stand apart in the source and are kept apart here. Non-standard residues stand in square brackets, D forms with d. Residues, ends and D or L forms follow the SMILES beside them. Aib = CC(C)(N)C(=O)O

How the values were obtained:
BoNT/A LC [1] = biological target: T1, BoNT/A LC (Clostridium botulinum, UniProt P0DPI0); conditions: cited from earlier work; for IC50: read-out: Reported Ki (cell: IC50)
BoNT/A LC [2] = biological target: T1, BoNT/A LC; experiment: biochemical; assay type: biochemical; conditions: for Ki range in words: pH 7.3
Target sequence in this assay (P0DPI0 2-448 limits assumed): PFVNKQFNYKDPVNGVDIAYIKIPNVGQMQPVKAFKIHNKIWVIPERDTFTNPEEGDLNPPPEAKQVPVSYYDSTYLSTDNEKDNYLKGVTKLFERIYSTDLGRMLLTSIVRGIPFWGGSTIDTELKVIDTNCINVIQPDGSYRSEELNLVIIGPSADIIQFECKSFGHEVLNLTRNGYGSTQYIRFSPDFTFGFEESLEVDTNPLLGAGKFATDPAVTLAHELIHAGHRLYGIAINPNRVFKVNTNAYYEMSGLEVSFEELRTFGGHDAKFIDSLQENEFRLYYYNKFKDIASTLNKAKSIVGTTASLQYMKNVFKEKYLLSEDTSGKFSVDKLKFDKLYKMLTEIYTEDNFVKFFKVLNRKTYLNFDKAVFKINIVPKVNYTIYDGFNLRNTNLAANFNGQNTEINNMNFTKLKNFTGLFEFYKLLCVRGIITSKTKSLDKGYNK

Compound | IC50 (BoNT/A LC [1]) | Ki (BoNT/A LC [2]) | Ki range in words (BoNT/A LC [2]) | also measured
O=C(/C=C/c1ccc(Cl)cc1)NO [4-chlorocinnamic hydroxamate] | 15 µM | – | – | –
NC(N)=NCCC[C@H](N)C(=O)NO [ArgHX, arginine hydroxamate] | 60 µM | – | – | –
CSCC[C@H](NC(=O)[C@H](C)NC(=O)C(C)(C)NC(=O)[C@H](Cc1c[nH]c2ccccc12)NC(=O)[C@H](CCCNC(=N)N)NC(=O)[C@@H](N)CCCNC(=N)N)C(=O)N[C@@H](CC(C)C)C(N)=O [JTH-NB72-38] (H-RRW[Aib]AML-NH2) | – | 0.991 ± 0.117 µM | nM range | –
CSCC[C@H](NC(=O)[C@H](C)NC(=O)C(C)(C)NC(=O)[C@H](Cc1ccccc1)NC(=O)[C@H](CCCNC(=N)N)NC(=O)[C@@H](N)CCCNC(=N)N)C(=O)N[C@@H](CC(C)C)C(N)=O [JTH-NB72-39] (H-RRF[Aib]AML-NH2) | – | 0.638 ± 0.092 µM | nM range | –
Fmoc-L-Leu-OH (0.124 g, 0.350 mmol, 3.50 equiv), Fmoc-L-Met-OH (0.130 g, 0.350 mmol, 3.50 equiv), Fmoc-L-Ala-OH (0.115 g, 0.350 mmol, 3.50 equiv), Fmoc-Aib-OH (0.114 g, 0.350 mmol, 3.50 equiv), Fmoc-L-1-Nal-OH (0.153 g, 0.350 mmol, 3.50 equiv), Fmoc-L-Arg(Pbf)-OH (0.227 g, 0.350 mmol, 3.50 equiv), Fmoc-L-Arg(Pbf)-OH (0.227 g, 0.350 mmol, 3.50 equiv) [JTH-NB72-35] | – | – | nM range | potency compared with I1 (BoNT/A LC [2]): none of them were as potent as I1; potency rank among the three reported PLMs (BoNT/A LC [2]): the most potent of the three reported PLMs
QRATKM | 133 µM | – | – | Ki (BoNT/A LC [1]): 133 µM
